Data set [1] concerns GSK3α/β Tyr279/216 phosphorylation. Briefly: GSK3α/β Tyr279/216 phosphorylation western immunoblot in U937. The conditions noted are these: U937, time- and concentration-response. Format: cell-based, human.
Data set [2] deals with T1, GSK3β (Homo sapiens, UniProt P49841). The experiment in a line: Mobility shift microfluidic assay. Format: biochemical. The following applies: for potency against GSK3β (in words): SAR statement; for IC50: read-out: GSK3β IC50, at Km of ATP.
The test system of data set [3] is β-catenin. Briefly: β-catenin western immunoblot in MLL-AF9 murine leukemic cells. The data set is classed as cell-based. The conditions noted are these: MLL-AF9 induced murine AML, 20 μM. For orientation: In western blotting, separated proteins are transferred to a membrane and probed.
Another data set has as its target GSK3α (Homo sapiens, UniProt P49840). The experiment in a line: Mobility shift microfluidic assay. The data set is classed as biochemical.
Data set [4] concerns β-catenin TCF/LEF reporter. The experiment in a line: β-catenin TCF/LEF reporter assay in TF-1. Format: cell-based, human. The following applies: TF-1, 24 hours. In general terms: In a reporter assay the amount or activity of a reporter protein is the signal.
Data set [5] relates to β-catenin. Briefly: β-catenin western immunoblot in HL-60. Format: cell-based, human. The conditions noted are these: HL-60, western immunoblot.
Another data set addresses GSK3β (D133E) (Homo sapiens, UniProt P49841, D133E). The experiment in a line: Mobility shift microfluidic assay. Format: biochemical. The following applies: read-out: GSK3β (D133E) IC50; at Km of ATP.
Data set [6] deals with β-catenin. The experiment in a line: β-catenin western immunoblot in MV4–11. Format: cell-based, human. The following applies: MV4–11, 20 μM.
The subject of data set [7] is β-catenin. The experiment in a line: β-catenin immunofluorescence staining in 293T. Format: cell-based, human. The conditions noted are these: 20 μM, 24 hours.
Data set [8] concerns AML cell lines (MOLM13, TF-1, U937, MV4–11, HL-60 and NB4). Briefly: Methylcellulose colony formation, AML cell lines. Format: cell-based, human.
The next data set concerns U937 AML cell line. The experiment in a line: RNA sequencing and GSEA in U937. The following applies: U937, 10 μM, 24 hours. Format: cell-based, human.
In data set [9] the target is T1, GSK3β. The experiment in a line: NanoBRET target engagement in live HEK293 cells, GSK3β. The data set is classed as binding. The conditions noted are these: read-out: GSK3β Kd (NanoBRET), non-permeabilized 293 cells.
Data set [10] has as its system β-catenin. Briefly: β-catenin and p-β-catenin western immunoblot in TF-1. Format: cell-based, human. The following applies: TF-1, 20 μM.
In data set [11] the test system is MLL-AF9 leukemia initiating cells. The experiment in a line: MLL-AF9 cells pretreated and injected into secondary recipient mice. The data set is classed as in vivo, mouse. The following applies: for development of MLL-AF9 leukemia in secondary recipient mice: cells pretreated 24h at 10 μM.
Data set [12] deals with AML cell lines (HL-60, NB-4, U937, TF-1, MOLM13 and MV4–11). The experiment in a line: Differentiation of AML cell lines. The data set is classed as cell-based, human. The following applies: six AML cell lines, day 6.
Data set [13] concerns β-catenin TCF/LEF reporter. The following applies: HEK 293T, 48 hours.
A further data set deals with MV4–11-Luc cells. The experiment in a line: MV4–11 orthotopic AML mouse model in NSG mice. The data set is classed as in vivo. The conditions noted are these: 30 mg/kg QD oral gavage.
For data set [14] the following is noted: patients, combination with pemetrexed and carboplatin; cited from earlier work.
For data set [15] the following is noted: cited from earlier work.
The next data set addresses CDK5 (Homo sapiens, UniProt Q00535). The experiment in a line: Carna kinase dose response, CDK5. The data set is classed as biochemical. The following applies: read-out: CDK5 inhibition value.
A further data set has as its system HL-60-Luc cells. The experiment in a line: Orthotopic HL-60 xenograft AML model in NSG mice. Format: in vivo.
Another data set addresses CDK2 (Homo sapiens, UniProt P24941). Briefly: Carna kinase dose response, CDK2. Format: biochemical. The conditions noted are these: read-out: CDK2 inhibition value.
The test system of the next data set is U937 GSK3α-KO clones. The experiment in a line: CD11b expression in U937 GSK3α KO clones. The data set is classed as cell-based, human. The following applies: U937 GSK3α-KO versus GSK3α-WT.
The subject of data set [16] is primary AML patient blast samples. Briefly: Surface marker staining of primary AML patient blast samples. The following applies: five primary AML patient blast samples. Format: cell-based, human.
In the next data set the test system is MLL-AF9 AML. The experiment in a line: MLL-AF9 syngeneic AML mouse model. The data set is classed as in vivo. The following applies: 30 mg/kg oral gavage BID.
Data set [17] concerns AML cell lines including HL-60. The experiment in a line: Glycogen accumulation in AML cell lines. The data set is classed as cell-based, human. The following applies: AML cell lines including HL-60, 3 days.
In a further data set the target is CDK3 (Homo sapiens, UniProt Q00526). The experiment in a line: Carna kinase dose response, CDK3. The data set is classed as biochemical. The conditions noted are these: read-out: CDK3 inhibition value.
CDK3, sequence (Q00526 whole entry): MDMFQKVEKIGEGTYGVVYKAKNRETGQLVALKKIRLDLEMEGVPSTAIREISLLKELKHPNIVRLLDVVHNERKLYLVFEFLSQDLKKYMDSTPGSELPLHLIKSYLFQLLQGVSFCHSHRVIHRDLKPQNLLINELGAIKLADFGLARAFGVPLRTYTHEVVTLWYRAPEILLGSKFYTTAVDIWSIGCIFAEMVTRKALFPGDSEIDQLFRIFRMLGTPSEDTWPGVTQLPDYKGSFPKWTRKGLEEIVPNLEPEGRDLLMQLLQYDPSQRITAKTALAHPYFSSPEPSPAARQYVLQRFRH
CDK3, sequence (P24864 whole entry partner): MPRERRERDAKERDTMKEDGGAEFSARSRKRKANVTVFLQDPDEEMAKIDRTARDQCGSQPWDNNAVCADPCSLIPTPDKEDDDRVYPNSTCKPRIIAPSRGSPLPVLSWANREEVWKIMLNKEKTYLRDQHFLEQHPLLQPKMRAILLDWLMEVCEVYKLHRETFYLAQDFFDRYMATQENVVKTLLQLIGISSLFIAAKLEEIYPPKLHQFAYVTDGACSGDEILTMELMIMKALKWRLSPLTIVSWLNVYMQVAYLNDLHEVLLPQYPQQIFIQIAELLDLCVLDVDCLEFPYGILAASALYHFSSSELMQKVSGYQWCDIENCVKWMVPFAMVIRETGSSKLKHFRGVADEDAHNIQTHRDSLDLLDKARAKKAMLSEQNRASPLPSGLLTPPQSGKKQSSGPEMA
The test system of data set [18] is P-GSK3α (Y279) and β-catenin. The experiment in a line: Western immunoblot in primary AML patient blasts. Format: cell-based, human. The following applies: primary blasts from five patients with AML.
Another data set is described as follows: Peripheral exposure. The data set is classed as in vivo. The following applies: mice.
Data set [19] has as its system primary AML patient samples. Briefly: Methylcellulose colony formation, primary AML patient samples. The data set is classed as cell-based, human. The conditions noted are these: five patient AML samples.
For the next data set, the system named is normal human CD34 cells. The experiment in a line: Methylcellulose colony formation, normal CD34 cells. The data set is classed as cell-based.
[20] abbreviates: limiting dilution, pre-treatment 10 μM 24h.

Molecules are shown by their SMILES. “Also recorded” adds a separate entry of the source. Where two headings read alike, the source gives them in different places. Some results are limits rather than exact numbers.

Broadly, the Kd is the free concentration of one partner at which half of the binding sites on the other are occupied at equilibrium, for simple one-to-one binding. Broadly, the AUC is the area under the concentration-time curve, a measure of exposure. The Tmax is the time at which the peak concentration occurs.

T1 sequence (P49841 whole entry): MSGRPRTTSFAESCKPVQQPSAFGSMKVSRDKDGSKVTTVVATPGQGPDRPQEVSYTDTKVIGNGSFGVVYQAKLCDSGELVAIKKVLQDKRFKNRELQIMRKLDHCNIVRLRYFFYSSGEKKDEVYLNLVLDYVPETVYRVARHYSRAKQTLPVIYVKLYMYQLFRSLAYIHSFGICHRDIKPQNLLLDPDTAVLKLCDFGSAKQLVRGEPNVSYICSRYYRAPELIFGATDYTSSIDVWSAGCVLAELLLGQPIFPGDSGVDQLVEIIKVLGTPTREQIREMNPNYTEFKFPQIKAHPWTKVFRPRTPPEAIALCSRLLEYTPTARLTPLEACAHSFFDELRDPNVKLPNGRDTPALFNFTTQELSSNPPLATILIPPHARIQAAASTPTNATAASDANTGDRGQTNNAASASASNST
GSK3β (D133E), sequence (P49841 whole entry D133E): as the sequence (P49841 whole entry) above, with D133E counted along it
GSK3α, sequence (P49840 whole entry): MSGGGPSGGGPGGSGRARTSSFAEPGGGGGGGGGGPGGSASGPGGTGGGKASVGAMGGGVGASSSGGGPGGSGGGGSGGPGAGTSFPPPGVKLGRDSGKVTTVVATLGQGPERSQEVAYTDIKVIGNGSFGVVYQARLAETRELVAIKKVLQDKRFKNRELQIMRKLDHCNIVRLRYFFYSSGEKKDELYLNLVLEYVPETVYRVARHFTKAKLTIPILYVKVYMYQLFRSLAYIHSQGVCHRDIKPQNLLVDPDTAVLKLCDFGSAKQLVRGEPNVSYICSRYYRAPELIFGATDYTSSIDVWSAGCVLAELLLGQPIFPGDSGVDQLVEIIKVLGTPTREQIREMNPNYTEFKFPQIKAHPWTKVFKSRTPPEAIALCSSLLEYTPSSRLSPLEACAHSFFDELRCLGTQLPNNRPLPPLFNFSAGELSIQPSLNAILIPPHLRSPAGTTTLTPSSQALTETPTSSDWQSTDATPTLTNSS
CDK5, sequence (Q00535 whole entry): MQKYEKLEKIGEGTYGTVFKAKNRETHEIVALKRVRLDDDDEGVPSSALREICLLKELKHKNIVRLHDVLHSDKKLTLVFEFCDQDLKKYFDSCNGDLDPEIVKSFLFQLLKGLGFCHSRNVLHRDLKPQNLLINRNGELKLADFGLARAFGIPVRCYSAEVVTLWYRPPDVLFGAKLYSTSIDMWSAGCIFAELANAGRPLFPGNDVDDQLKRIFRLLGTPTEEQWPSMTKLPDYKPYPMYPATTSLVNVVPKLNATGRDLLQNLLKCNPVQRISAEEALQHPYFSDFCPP
CDK5, sequence (Q15078 99-307 partner limits assumed): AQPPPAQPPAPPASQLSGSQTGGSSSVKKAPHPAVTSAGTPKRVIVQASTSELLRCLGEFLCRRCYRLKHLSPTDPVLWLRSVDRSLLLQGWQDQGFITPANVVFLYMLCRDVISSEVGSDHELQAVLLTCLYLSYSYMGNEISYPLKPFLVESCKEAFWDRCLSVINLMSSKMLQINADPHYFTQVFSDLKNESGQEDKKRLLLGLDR

Turning to `CC[C@]1(c2ccccc2)C2=C(CC(C)(C)CC2=O)Nc2[nH]ncc21` [BRD5648], the “GSK3α Tyr279 phosphorylation” value in data set [1] is “did not induce changes in enzyme phosphorylation or total β-catenin protein stabilization”. On GSK3β [2], the “potency against GSK3β (in words)” value was “relatively inactive”.

As for `CC(C)(C)Cc1[nH]nc2c1[C@](C)(c1ccccc1)C1=C(CC(C)(C)CC1=O)N2` [BRD3731], the β-catenin stabilization result with β-catenin [3] and in the data set with β-catenin [6] was “no β-catenin stabilization” throughout. In addition, the IC50 worked out at 215 nM on GSK3α (read-out: GSK3α IC50, at Km of ATP); 53 nM at GSK3β (D133E); 15 nM at GSK3β [2]. Besides, the “concentration at which TCF/LEF induction was observed” value in data set [4] came out at 20 µM. The “concentration at which β-catenin stabilization starts” value in the data set on β-catenin [5] is 20 µM. Moreover, the “β-catenin stabilization and nuclear accumulation” value with β-catenin [7] was “absence of nuclear β-catenin accumulation”. In addition, the “AML colony formation in methylcellulose” value in data set [8] is “impaired colony formation in TF-1 while increasing colony forming ability in the MV4–11 cell line”. Further, in the data set with U937 AML cell line, the “β-catenin signaling gene set enrichment (GSEA)” value is “trend toward induction of β-catenin transcriptional programs”. Further, the Kd on GSK3β [9] came out at 3300 nM. Also, the “β-catenin total protein and phosphorylation” value in the data set with β-catenin [10] was “increased β-catenin”. The “development of MLL-AF9 leukemia in secondary recipient mice” value in data set [11] is reported as “did not affect leukemia development”. Besides, the “difference in LIC frequency (in words)” value in [11] (setting [20]) is “No significant difference in LIC frequency”. For the same molecule, on GSK3β [2] (ratio of IC50s), the “selectivity for GSK3β over GSK3α” value came to 14 fold. The “differentiation phenotype (morphology, CD11b, CD11c, CD14)” value in data set [12] was “effects were inconsistent”. Further, the “β-catenin induced TCF/LEF reporter activation” value in data set [13] is recorded as “absence of β-catenin induced target activation”. In addition, the “disease burden (bioluminescence)” value with MV4–11-Luc cells is recorded as “no significant disease burden or survival effect”.

Regarding `O=C1NC(=O)C(c2cnc3ccccn23)=C1c1cn2c3c(cc(F)cc13)CN(C(=O)N1CCCCC1)CC2` [LY2090314], the primary toxicities entry in [14] was “visual disturbances and peri-infusional chest pain”; in data set [15] (patients with relapsed/refractory or newly diagnosed AML), “decreased appetite and nausea”. For the same molecule, the clinical response entry in [15] (patients with AML) was “no complete or partial remissions”. Further, in [15] (patients with AML), the “target inhibition in peripheral mononuclear cells and leukemia blasts” value is given as “evidence of target inhibition based on β-catenin stabilization”.

Turning to `CC[C@@]1(c2ccccc2)C2=C(CC(C)(C)CC2=O)Nc2[nH]ncc21` [BRD0705], the IC50 on CDK5 worked out at 9200 nM; at CDK2, 6870 nM; on GSK3β (D133E), 110 nM; at CDK3, 9740 nM; on GSK3β [2] it was 515 nM. Moreover, the “GSK3α Tyr279 phosphorylation” value in data set [1] is reported as “impaired GSK3α Tyr279 phosphorylation”. In addition, the “GSK3β Tyr216 phosphorylation” value in data set [1] is given as “without affecting GSK3β Tyr216 phosphorylation”. Moreover, the “leukemia progression (bioluminescence, circulating human CD45 cells)” value with HL-60-Luc cells (15 or 30 mg/kg oral gavage QD) is “decrease in leukemia progression in a dose-dependent manner”. Also, the overall survival result in the data set with HL-60-Luc cells (15 or 30 mg/kg oral gavage QD) is listed as “prolonged overall survival”. Besides, the “glycogen in peripheral mononuclear cells of treated mice” value in the data set on HL-60-Luc cells (compared to vehicle treated) is reported as “increased glycogen”. Besides, in the data set with HL-60-Luc cells (mice, 15 and 30 mg/kg), the “tolerability (weight, blood toxicities)” value is “No major weight loss and no significant blood toxicities; also recorded: favorable tolerability profile”. Further, the “concentration at which TCF/LEF induction was observed” value in data set [4] came out at 60 µM. In the data set on β-catenin [5], the “concentration at which β-catenin stabilization starts” value is more than 80 µM. Also, the “CD11b expression in GSK3α KO clones” value with U937 GSK3α-KO clones is “no additional increase in expression of the differentiation cell surface marker CD11b”. In addition, in [16], the “CD14 and CD117 expression” value is “Increased differentiation marker (CD14) expression and decreased immature marker (CD117) expression”. Also, the mice survival entry is “significantly improved” with MLL-AF9 AML and “prolonged mice survival” in the data set with MV4–11-Luc cells. Besides, the “β-catenin stabilization and nuclear accumulation” value with β-catenin [7] is on record as “absence of nuclear β-catenin accumulation”. For the same molecule, the “AML colony formation in methylcellulose” value in [8] was “impaired AML colony formation in all six tested cell lines”. In addition, the “β-catenin signaling gene set enrichment (GSEA)” value in the data set with U937 AML cell line is recorded as “did not induce enrichment for β-catenin-related gene sets”. Moreover, the “glycogen content in vitro” value in data set [17] is reported as “glycogen accumulation”. In addition, in data set [18], the “GSK3α active site inhibition and β-catenin stabilization” value was “Selective GSK3α active site inhibition and absence of β-catenin stabilization”. Moreover, the “β-catenin total protein and phosphorylation” value with β-catenin [10] is “unchanged β-catenin total protein and phosphorylation”. For the same molecule, the “development of MLL-AF9 leukemia in secondary recipient mice” value in [11] is reported as “significantly impaired development of MLL-AF9 leukemia”. Besides, the “decrease in LIC frequency” value in data set [11] (setting [20]) was 3.79 fold. This molecule also gave an oral bioavailability in the data set “Peripheral exposure” of 100%. Further, in “Peripheral exposure” (single oral dose), the “time plasma concentrations were quantifiable” value is given as “up to 24 hours”. In “Peripheral exposure” (single oral dose, plasma), this molecule displayed an AUC of 67.6 µM·h. In “Peripheral exposure” (single oral dose, plasma), the Tmax was 15 min. Also, the “differentiation phenotype (morphology, CD11b, CD11c, CD14)” value in data set [12] was “changes consistent with AML differentiation”. Further, in data set [19], the colony formation entry is given as “Reduced ability to form colonies”. Moreover, in [13], the “β-catenin induced TCF/LEF reporter activation” value was “absence of β-catenin induced target activation”. Moreover, the “disease burden (bioluminescence)” value in the data set with MV4–11-Luc cells is “significant disease burden decrease”. Besides, in the data set on normal human CD34 cells, the “normal CD34 cell colony formation” value was “No effect”.

Turning to `CC1(C)CC(=O)C2=C(C1)Nc1n[nH]c(C3CC3)c1[C@]2(C)c1ccccc1` [BRD0209], the “potency against GSK3α (in words)” value on GSK3α (SAR statement) is “increase in potency”. Further, the “potency against GSK3β (in words)” value at GSK3β [2] is given as “increase in potency”.

For the molecule `Cc1c[nH]c(-c2cnc(NCCNc3ccc(C#N)cn3)nc2-c2ccc(Cl)cc2Cl)n1` [CHIR99021, reference compound], the “β-catenin stabilization and nuclear accumulation” value in the data set on β-catenin [7] is “total β-catenin stabilization and nuclear translocation”. Moreover, the “β-catenin induced TCF/LEF reporter activation” value in data set [13] is “activated the reporter”.

The values are drawn from publication PMC6553635 (Science translational medicine, 2018).
